We go through one substance from patent publication US6011019A, “Vasoactive effects and free radical generation by β-amyloid peptides” (University of South Florida, priority 1996, dated 2000).

The test system of test [1] is blood vessel (rat aorta). The test can be described thus: Acetylcholine induced relaxation of preconstricted rat aorta after β-amyloid. Conditions: for acetylcholine induced relaxation after β-amyloid pretreatment: 10^-6 M β-amyloid fifteen minutes, preconstricted with 10^-7 M phenylephrine. On the procedure: (§1) The blood vessel preparations were mounted on stainless steel hooks attached to a force-displacement transducer and equilibrated under the optimum tension of 1.3 g for a period of sixty minutes in a tissue bath (10 ml) containing oxygenated (5% CO2 in O2) Kreb's buffer at 37° C. The buffer was changed every fifteen minutes. After equilibration for sixty minutes the viability of the blood vessel with intact endothelium was established by constricting the blood vessel using phenylephrine ([…]). This dose of phenylephrine elicited 80% of the maximum response. […] The vessel preparations were washed for fifteen minutes before various manipulations as described below.
(1=10^-9 M, 2=10^-8 M, 3=5×10^-8 M, 4=10^-7 M, 5=5×10^-7 M, 6=10^-6 M, 7=10^-5 M, 8=5×10^-5 M, the curve denoted by (C) is the control curve and +Aβ indicates the curve for β-amyloid treated aorta.)
FIG. 11 illustrates the relaxation by acetylcholine under control conditions and following fifteen minute incubation with 10^-6 M β-amyloid protein. The acetylcholine relaxation curve is shifted to the right but maintains its sigmoidal form indicating attenuation of acetylcholine induced relaxation. Values represent the mean±SEM of 5 or more experiments. […] At higher doses of acetylcholine greater percentage changes in relaxation occur preserving the sigmoidal response.

Test [2] concerns porcine coronary arteries. Put plainly: Porcine coronary artery vascular tone and bradykinin relaxation. The text has this: Freshly isolated porcine coronary arteries were studied by the methods described above for rat aorta.
The effect of pre-treatment with a single dose of amyloid protein on relaxation induced by increasing concentrations of the vasodilator bradykinin is shown in FIG. 23. […] was preconstricted with a single dose of the vasoconstrictor U46619.

In test [3] the test system is aortic rings. The test can be described thus: β-amyloid augmentation of phenylephrine (PE) induced contraction of aortic rings. The settings on record: for PE induced contraction, +β-Amyloid P1 (±SEM): after 10^-6 M β-amyloid, maximum contraction without β-amyloid = 100%; for PE induced contraction, +β-Amyloid P2 (±SEM): repeated contraction after washing, no further β-amyloid. The arrangement: species or system rat. On the procedure:
as §1
The procedure was then repeated following incubation of the tissue with 10^-6 M β-amyloid for fifteen minutes (P1). The tissue was then rinsed and contractions repeated twice following fifteen minute incubation (P2 & P3) without further addition of β-amyloid. Arrows are shown for points of addition for P3.
Following a fifteen minute incubation, the preparations were contracted with 10^-7 M phenylephrine (PE) as described earlier. Control contractions with PE alone were carried out in presence of the various test compounds. Values represent the mean±SEM of four or more experiments. The heat-inactivated SOD was prepared by placing it in boiling water for thirty minutes followed by cooling prior to use. The hydrogen peroxide-inactivated SOD was prepared by exposing SOD to 10 mM H2 O2 for thirty minutes at pH 8.5 and subsequent separation using Microcon filtration system. The amyloid induced PE contraction was blocked by active SOD. Neither albumin or inactivated SOD had any effect on the amyloid activity.
The effect of preincubation of blood vessel with 10^-6 M β-amyloidon contraction induced by phenylephrine (2, 4, 8, & 16×10^-8 M is shown in Table 1). The maximum contraction in the absence of β-amyloid is taken as 100% and the values obtained following exposure to β-amyloid are expressed as percent of control value. After washing out phenylephrine and acetylcholine of the control contraction, β-amyloid augmented the phenylephrine induced contractions (P1). This effect was blocked by SOD. Washing out the phenylephrine and acetylcholine of the post peptide contraction and repeating the contractions caused further enhancement (P2). Values represent the mean±SEM of nine or more experiments.
The tissue was then incubated for fifteen minutes with β-amyloid (5×10^-7 M) with or without the drug, followed by contractions with PE. The concentrations compounds used were: L-NMMA, an inhibitor of NO synthase (10^-4 M); indomethacin, an inhibitor of the cyclooxygenase pathway (10^-5 M); SQ 29548, a thromboxane A2 receptor antagonist (10^-5 M); and catalase (1000 units/ml). Values are represented as percentage of the maximal contraction obtained with β-amyloid and PE alone and standardized to remove the intrinsic effects (if any) of each drug on PE contraction alone. The results represent the mean±SEM of five or more experiments.

Test [4] deals with rat coronary arteries. Put plainly: Rat coronary artery constriction and relaxation (U46619, acetylcholine). Conditions: single dose 10^-6 M; preconstricted with 10^-7 M U46619. As for the experimental part: The effects of β-amyloid peptide were examined on samples of rat coronary arteries prepared as described above. Referring specifically to FIG. 1, rat coronary arteries were treated with β-amyloid peptide (Aβ40) causing constriction of the coronary arteries.
FIG. 3 illustrates the effect of various amyloid fragments on the constriction of rat coronary arteries. Following control constriction with 10^-7 M U46619, the tissue samples were rinsed, equilibrated with buffer, and treated with 10^-6 M Aβ peptides for fifteen minutes. Following treatment with the Aβ peptides, the blood vessels were rinsed and again exposed to U46619. The values are expressed as percent of control constriction produced by U46619 alone.
The effect of pretreatment of coronary arteries with a single dose (10^-6 M) of A40 on acetylcholine induced relaxation is shown in FIG. 20. The blood vessel was preconstricted with 10^-7 M U46619 and relaxed with increasing doses of acetylcholine (10^-9 M to 10^-5 M).

For test [5], the system named is endothelial cell layer in rat coronary artery. The test can be described thus: Electron microscopy of endothelial cell layer in rat coronary artery. Conditions: β-amyloid thirty minutes at 10^-6 M. On the procedure:
The physiological effects of β-amyloid treatment on the coronary artery with and without pretreatment with SOD is shown in FIG. 7A-C. FIG. 7A-C are electron micrographs showing the endothelial cell layer in rat coronary artery. […] The tissue samples were kept in glutaraldehyde solution at 4° C. until processed and then rinsed with cacodylate buffer. The tissues were post-fixed with 1% buffered osmium tetroxide, dehydrated with grated ethanol solutions, and embedded in a mixture of eponaraldite. Ultra thin sections were stained with uranyl acetate and lead citrate and viewed on a model 7,000 Hitachi transmission electron microscope. The inset bar indicates two microns. The experiment was repeated three or more times with blood vessels from different animals. FIG. 7A is a control coronary artery and depicts normal endothelial cells closely adhering to the intimal elastic lamina lining of the lumen. […] FIG. 7C depicts a rat coronary artery pretreated with SOD (150 units/ml, for thirty seconds prior to the addition of β-amyloid).

Test [6] has as its system bovine mid cerebral arteries. The test can be described thus: Bovine mid cerebral artery contraction (U46619) and bradykinin vasodilation. Conditions: 1 μM β-amyloid for 15 minutes. On the procedure: Freshly dissected bovine mid cerebral arteries were cut into 3 mm rings and studied in tissue chamber as described earlier. Contraction of the blood vessel to the vasoconstrictor U46619 was studied before and after treatment with 1 μM β-amyloid for 15 minutes. […] (See FIG. 24).

Take β-amyloid: the “acetylcholine induced relaxation after β-amyloid pretreatment” value in test [1] is listed as “significantly reduced relaxation”; in test [1] (listed as β-amyloid protein), “significantly lowered”. Also, the “restoration of acetylcholine induced relaxation by washing after β-amyloid” value in test [1] (tissue washed following β-amyloid exposure) is recorded as “did not restore the acetylcholine-induced relaxation to control levels”. Further, the “contraction of porcine coronary artery” value in test [2] (increasing concentrations of amyloid peptide) is reported as “dose dependent contraction”. Also, the “vasodilation caused by bradykinin after amyloid peptide” value in test [2] (single dose of amyloid, increasing bradykinin) was “reduced the vasodilation caused by the bradykinin”. For the same substance, in test [2] (single dose of amyloid, preconstricted with U46619), the “vasoconstriction by U46619 after amyloid peptide” value was “significant increase in vasoconstriction”. Moreover, the “PE induced contraction, +β-Amyloid P1 (±SEM)” value in test [3] (PE 2×10^-8 M) was 13.3(5.9) percent of control value; in test [3] (PE 4×10^-8 M), 75(6.0) percent of control value; in test [3] (PE 8×10^-8 M), 105(15.0) percent of control value; in test [3] (PE 16×10^-8 M), 128(11.7) percent of control value. Besides, the “PE induced contraction, +β-Amyloid P2 (±SEM)” value in test [3] (PE 2×10^-8 M) is 20(5.0) percent of control value; in test [3] (PE 4×10^-8 M), 99(15.0) percent of control value; in test [3] (PE 8×10^-8 M), 133(20.0) percent of control value; in test [3] (PE 16×10^-8 M), 141(17.6) percent of control value. Further, the “PE contraction after washing the β-amyloid treated tissue” value in test [3] (subsequent contraction with PE) is reported as “showed further increase”. Besides, the “acetylcholine induced vasodilation after pretreatment” value in test [4] was “significantly reduced the vasodilation induced by acetylcholine”. The “endothelial layer morphology in rat coronary artery” value in test [5] was “Derangement of the endothelial layer, condensed nucleus, separation from the intimal elastic lamina, and areas of denuded internal elastic lamina”. The “contraction induced by U46619 after β-amyloid” value in test [6] was “significantly increased”. Moreover, in test [6], the “vasodilatory effect of bradykinin after β-amyloid” value is recorded as “markedly reduced”.
